Active and inactive are the calls of the source. The rule behind the calls is not given here.
How the values were obtained:
Staphylococcus aureus [1] = test: Growth inhibition of methicillin-resistant Staphylococcus aureus Mu50
[2] = molecular target: T1, Signal transduction protein TRAP (Staphylococcus aureus (strain Mu50 / ATCC 700699)) (UniProt Q7A2Q4); test: (§1) Inhibition of methicillin-resistant Staphylococcus aureus Mu50 TRAP assessed as potentiation of vancomycin-induced antibiofilm activity by measuring vancomycin-mediated reduction in colony forming units at 25 uM cotreated with vancomycin for 24 hrs (reference value: 30 +/- 14%); conditions: Staphylococcus aureus subsp. aureus Mu50
T1 sequence (whole entry): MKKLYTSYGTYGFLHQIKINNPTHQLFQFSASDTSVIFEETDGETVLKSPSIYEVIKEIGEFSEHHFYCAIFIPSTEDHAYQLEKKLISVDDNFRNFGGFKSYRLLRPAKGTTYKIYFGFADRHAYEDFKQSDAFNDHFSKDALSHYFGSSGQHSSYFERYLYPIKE

[3] = molecular target: T1, Signal transduction protein TRAP (Staphylococcus aureus (strain Mu50 / ATCC 700699)); test: as §1, with “pretreated for 4 hrs prior to” for “cotreated with”, “addition measured after 20” for “for 24”; conditions: Staphylococcus aureus subsp. aureus Mu50
[4] = molecular target: T1, Signal transduction protein TRAP (Staphylococcus aureus (strain Mu50 / ATCC 700699)); test: Inhibition of methicillin-resistant Staphylococcus aureus Mu50 TRAP assessed as reduction in vancomycin MIC at 100 uM; conditions: Staphylococcus aureus subsp. aureus Mu50
Staphylococcus aureus [5] = test: Antibiofilm activity against methicillin-resistant Staphylococcus aureus Mu50 at 100 uM; format: functional
Staphylococcus aureus [6] = test: Inhibition of methicillin-resistant Staphylococcus aureus JE2 TRAP assessed as reduction in vancomycin MIC at 100 uM
Staphylococcus aureus [7] = test: Antibiofilm activity against methicillin-resistant Staphylococcus aureus JE2 at 100 uM; format: functional
[8] = Drug metabolism assessed as UGT-mediated compound degradation in human liver microsomes at 5 uM using UDPGA as cofactor by UPLC-MS/MS analysis; format: ADME
[9] = Drug metabolism assessed as CYP450-mediated compound degradation in human liver microsomes at 5 uM using NADPH as cofactor by UPLC-MS/MS analysis; format: ADME
Plasma = test: Metabolic stability in human plasma by UPLC-MS/MS analysis; format: ADME, cell-free

`COc1ccc(C(=O)NC[C@]2(O)CO[C@H](CNC(=O)c3ccccc3Cl)[C@H]2O)cc1` showed an MIC (Staphylococcus aureus [1]) of over 500 µM, an inhibition [2] of 43% and an inhibition [3] of 34%.

With `Cc1ccc(C(=O)NC[C@]2(O)CO[C@H](CNC(=O)c3ccccc3Cl)[C@H]2O)cc1` the MIC (Staphylococcus aureus [1]) was over 500 µM, the inhibition [2] was 58% and the inhibition [3] was 48%.

For `O=C(OC[C@H]1OC(O)[C@@](O)(COC(=O)c2cc(O)c(O)c(O)c2)[C@@H]1O)c1cc(O)c(O)c(O)c1` (some centres undefined) [HAMAMELITANNIN], the MIC (Staphylococcus aureus [1]) was over 500 µM, the inhibition [2] was 31% and the inhibition [3] was 35%.

`O=C(NC[C@H]1OC[C@@](O)(CNS(=O)(=O)c2ccccc2)[C@@H]1O)c1ccccc1Cl` gave an MIC (Staphylococcus aureus [1]) of over 500 µM, an inhibition [2] of 44% and an inhibition [3] of 65%.

`O=C(NC[C@]1(O)CO[C@H](CNC(=O)c2ccccc2Cl)[C@H]1O)c1ccc(Cl)cc1` gave an MIC (Staphylococcus aureus [1]) of over 500 µM, an inhibition [2] of 43% and an inhibition [3] of 39%.

`O=C(CCc1ccccc1)NC[C@]1(O)CO[C@H](CNC(=O)c2ccccc2Cl)[C@H]1O` showed an MIC (Staphylococcus aureus [1]) of over 500 µM, an inhibition [2] of 18% and an inhibition [3] of 35%.

In the case of `O=C(NC[C@H]1OC[C@@](O)(CN2Cc3ccccc3C2=O)[C@@H]1O)c1ccccc1Cl`, the MIC (Staphylococcus aureus [1]) is reported as over 500 µM, the inhibition [2] is reported as 73% and the inhibition [3] is reported as 92%.

For `O=C(NC[C@]1(O)CO[C@H](CN2C(=O)c3ccccc3C2=O)[C@H]1O)c1ccnnc1`, the inhibition [4] was “inactive”, the Activity (Staphylococcus aureus [5]) was “inactive” and the inhibition (Staphylococcus aureus [6]) was “inactive”. The Activity (Staphylococcus aureus [7]) was “inactive”.

Compound `CN[C@H](CC(C)C)C(=O)N[C@H]1C(=O)N[C@@H](CC(N)=O)C(=O)N[C@H]2C(=O)N[C@H]3C(=O)N[C@H](C(=O)N[C@H](C(=O)O)c4cc(O)cc(O)c4-c4cc3ccc4O)[C@H](O)c3ccc(c(Cl)c3)Oc3cc2cc(c3O[C@@H]2O[C@H](CO)[C@@H](O)[C@H](O)[C@H]2O[C@H]2C[C@](C)(N)[C@H](O)[C@H](C)O2)Oc2ccc(cc2Cl)[C@H]1O` has an inhibition [2] of 30% and an inhibition [3] of 30%.

In the case of `O=C(NC[C@]1(O)CO[C@H](CN2C(=O)c3ccccc3C2=O)[C@H]1O)c1ccccc1Cl`, the Stability [8] is reported as “Stable”, the inhibition [4] is reported as “inactive” and the Activity (Staphylococcus aureus [5]) is reported as “inactive”. For the same compound, the Stability [9] was “Unstable”, the inhibition (Staphylococcus aureus [6]) was “inactive” and the Activity (Staphylococcus aureus [7]) was “inactive”. For the same compound, the Stability (Plasma) was “Stable”.

With `O=C(NC[C@H]1OC[C@@](O)(CNCc2ccccc2)[C@@H]1O)c1ccccc1Cl` the MIC (Staphylococcus aureus [1]) was over 500 µM, the inhibition [2] was 89% and the inhibition [3] was 94%.

For `O=C(NC[C@H]1OC[C@@](O)(CNC(=O)C2CCCCC2)[C@@H]1O)c1ccccc1Cl`, the MIC (Staphylococcus aureus [1]) was over 500 µM, the inhibition [2] was 55% and the inhibition [3] was 85%.

With `O=C(NC[C@]1(O)CO[C@H](CNC(=O)c2ccccc2Cl)[C@H]1O)c1ccoc1` the MIC (Staphylococcus aureus [1]) was over 500 µM, the inhibition [2] was 50% and the inhibition [3] was 58%.

`O=C(NC[C@]1(O)CO[C@H](CNC(=O)c2ccccc2Cl)[C@H]1O)c1ccccc1F` showed an MIC (Staphylococcus aureus [1]) of over 500 µM, an inhibition [2] of 56% and an inhibition [3] of 38%.

With `O=C(NC[C@]1(O)CO[C@H](CNC(=O)c2ccccc2Cl)[C@H]1O)c1cncnc1` the MIC (Staphylococcus aureus [1]) was over 500 µM, the inhibition [2] was 35% and the inhibition [3] was 36%.

`O=C(NC[C@]1(O)CO[C@H](CNC(=O)c2ccccc2Cl)[C@H]1O)c1ccccc1` showed an MIC (Staphylococcus aureus [1]) of over 500 µM, an inhibition [2] of 80% and an inhibition [3] of 85%.

For `CC(=O)NC[C@]1(O)CO[C@H](CNC(=O)c2ccccc2Cl)[C@H]1O`, the MIC (Staphylococcus aureus [1]) was over 500 µM, the inhibition [2] was 82% and the inhibition [3] was 70%.

Work on `[N-]=[N+]=NC[C@]1(O)CO[C@H](CNC(=O)c2ccccc2Cl)[C@H]1O` yielded an MIC (Staphylococcus aureus [1]) of over 500 µM, an inhibition [2] of 88% and an inhibition [3] of 87%.

With `O=C(NC[C@H]1OC[C@H](O)[C@@H]1O)c1ccccc1Cl` the MIC (Staphylococcus aureus [1]) was over 500 µM, the inhibition [2] was 81% and the inhibition [3] was 80%.

`O=C(NC[C@]1(O)CO[C@H](CNC(=O)c2ccccc2Cl)[C@H]1O)Nc1ccccc1` gave an MIC (Staphylococcus aureus [1]) of over 500 µM, an inhibition [2] of 58% and an inhibition [3] of 67%.

Source: ChEMBL document CHEMBL4041547, “Novel Potentiators for Vancomycin in the Treatment of Biofilm-Related MRSA Infections via a Mix and Match Approach” (ACS Med Chem Lett, 2017)
